For three compounds, Kd results are on record in article PMC4774911, “Biochemical Screening of Five Protein Kinases from Plasmodium falciparum against 14,000 Cell-Active Compounds” (PLoS ONE, 2016).

Assay in all cases: biochemical
What all share (parameters): endogenous in cells; host or cells: K562 cell extract; species or system K562 (extract); replicate k of n = 2 (each experiment ID is one independent experiment; two experiment IDs per compound)
Common to all, as to conditions: read-out: KDapp

Experiment [1] deals with MAP3K11 (Homo sapiens, UniProt Q16584).
Sequence of MAP3K11 (Q16584 whole entry): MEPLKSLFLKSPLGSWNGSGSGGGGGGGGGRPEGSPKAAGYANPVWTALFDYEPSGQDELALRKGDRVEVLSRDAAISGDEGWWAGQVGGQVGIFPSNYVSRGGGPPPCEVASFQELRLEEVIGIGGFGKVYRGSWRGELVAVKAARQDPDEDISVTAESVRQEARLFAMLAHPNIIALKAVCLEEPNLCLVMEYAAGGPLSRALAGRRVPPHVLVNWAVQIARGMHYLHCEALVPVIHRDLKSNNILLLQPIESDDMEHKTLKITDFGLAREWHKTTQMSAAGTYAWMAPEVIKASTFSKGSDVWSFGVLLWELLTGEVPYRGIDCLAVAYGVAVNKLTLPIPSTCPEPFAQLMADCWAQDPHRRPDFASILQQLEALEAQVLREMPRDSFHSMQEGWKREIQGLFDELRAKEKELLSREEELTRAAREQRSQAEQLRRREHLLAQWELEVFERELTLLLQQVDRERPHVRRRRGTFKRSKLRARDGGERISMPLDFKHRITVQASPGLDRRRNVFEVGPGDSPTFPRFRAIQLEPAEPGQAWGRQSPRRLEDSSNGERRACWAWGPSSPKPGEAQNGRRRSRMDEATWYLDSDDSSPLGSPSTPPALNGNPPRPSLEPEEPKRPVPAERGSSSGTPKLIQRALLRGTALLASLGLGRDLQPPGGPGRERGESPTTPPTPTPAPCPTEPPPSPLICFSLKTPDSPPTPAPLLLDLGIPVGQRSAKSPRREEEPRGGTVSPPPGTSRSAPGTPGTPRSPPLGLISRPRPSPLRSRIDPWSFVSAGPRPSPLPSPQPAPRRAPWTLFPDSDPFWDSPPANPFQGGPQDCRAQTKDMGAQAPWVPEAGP
The target of experiment [2] is MAP2K1 (Homo sapiens, UniProt Q02750).
Sequence of MAP2K1 (Q02750 whole entry): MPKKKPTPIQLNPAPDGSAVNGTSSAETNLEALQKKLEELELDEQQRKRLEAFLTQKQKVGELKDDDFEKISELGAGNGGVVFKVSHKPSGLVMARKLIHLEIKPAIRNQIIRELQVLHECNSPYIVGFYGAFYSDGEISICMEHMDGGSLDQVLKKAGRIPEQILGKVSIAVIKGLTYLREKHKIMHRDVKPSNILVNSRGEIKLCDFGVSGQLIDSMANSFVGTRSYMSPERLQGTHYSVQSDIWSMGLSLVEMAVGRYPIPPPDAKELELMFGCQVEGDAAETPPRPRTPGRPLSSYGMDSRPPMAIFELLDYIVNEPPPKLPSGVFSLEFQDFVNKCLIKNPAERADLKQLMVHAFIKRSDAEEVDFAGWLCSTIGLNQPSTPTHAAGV
In experiment [3] the target is EIF2AK4 (Homo sapiens, UniProt Q9P2K8).
Experiment [4] deals with MAP2K2 (Homo sapiens, UniProt P36507).
Sequence of MAP2K2 (P36507 whole entry): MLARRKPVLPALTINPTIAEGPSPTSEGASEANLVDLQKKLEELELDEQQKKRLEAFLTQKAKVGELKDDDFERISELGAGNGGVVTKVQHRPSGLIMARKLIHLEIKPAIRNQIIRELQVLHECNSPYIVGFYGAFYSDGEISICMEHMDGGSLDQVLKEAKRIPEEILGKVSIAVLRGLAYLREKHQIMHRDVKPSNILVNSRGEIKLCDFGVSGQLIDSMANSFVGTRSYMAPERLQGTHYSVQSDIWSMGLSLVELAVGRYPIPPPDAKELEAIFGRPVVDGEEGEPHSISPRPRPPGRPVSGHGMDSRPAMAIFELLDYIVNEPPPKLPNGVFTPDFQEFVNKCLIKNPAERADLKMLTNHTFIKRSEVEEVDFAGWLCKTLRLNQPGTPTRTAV
In experiment [5] the target is MARK3 (Homo sapiens, UniProt P27448).
Sequence of MARK3 (P27448 whole entry): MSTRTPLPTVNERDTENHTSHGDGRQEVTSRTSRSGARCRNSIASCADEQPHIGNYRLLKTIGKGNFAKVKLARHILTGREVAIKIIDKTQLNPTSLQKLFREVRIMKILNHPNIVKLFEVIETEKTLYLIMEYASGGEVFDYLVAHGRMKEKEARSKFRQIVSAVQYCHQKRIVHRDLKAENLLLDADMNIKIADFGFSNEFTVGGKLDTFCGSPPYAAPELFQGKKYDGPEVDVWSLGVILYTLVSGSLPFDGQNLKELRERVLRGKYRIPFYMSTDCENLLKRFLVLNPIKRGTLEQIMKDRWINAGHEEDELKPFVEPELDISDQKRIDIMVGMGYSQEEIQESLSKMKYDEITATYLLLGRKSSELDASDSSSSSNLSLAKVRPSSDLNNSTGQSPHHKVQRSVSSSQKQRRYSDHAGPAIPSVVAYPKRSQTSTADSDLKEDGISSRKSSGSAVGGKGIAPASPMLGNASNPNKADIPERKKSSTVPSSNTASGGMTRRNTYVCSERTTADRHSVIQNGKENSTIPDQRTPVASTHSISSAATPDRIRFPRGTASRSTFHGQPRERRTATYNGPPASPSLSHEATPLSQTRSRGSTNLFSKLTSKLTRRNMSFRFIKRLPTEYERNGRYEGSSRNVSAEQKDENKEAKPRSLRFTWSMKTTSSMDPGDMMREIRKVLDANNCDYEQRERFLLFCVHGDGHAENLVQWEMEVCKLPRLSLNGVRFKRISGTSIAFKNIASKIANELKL
Experiment [6] concerns the target PRKACB (Homo sapiens, UniProt P22694).
Experiment [7] concerns the target LYN (Homo sapiens, UniProt P07948).
Experiment [8] addresses T1, MAP3K3 (Homo sapiens, UniProt Q99759).
T1 sequence (Q99759 1-626): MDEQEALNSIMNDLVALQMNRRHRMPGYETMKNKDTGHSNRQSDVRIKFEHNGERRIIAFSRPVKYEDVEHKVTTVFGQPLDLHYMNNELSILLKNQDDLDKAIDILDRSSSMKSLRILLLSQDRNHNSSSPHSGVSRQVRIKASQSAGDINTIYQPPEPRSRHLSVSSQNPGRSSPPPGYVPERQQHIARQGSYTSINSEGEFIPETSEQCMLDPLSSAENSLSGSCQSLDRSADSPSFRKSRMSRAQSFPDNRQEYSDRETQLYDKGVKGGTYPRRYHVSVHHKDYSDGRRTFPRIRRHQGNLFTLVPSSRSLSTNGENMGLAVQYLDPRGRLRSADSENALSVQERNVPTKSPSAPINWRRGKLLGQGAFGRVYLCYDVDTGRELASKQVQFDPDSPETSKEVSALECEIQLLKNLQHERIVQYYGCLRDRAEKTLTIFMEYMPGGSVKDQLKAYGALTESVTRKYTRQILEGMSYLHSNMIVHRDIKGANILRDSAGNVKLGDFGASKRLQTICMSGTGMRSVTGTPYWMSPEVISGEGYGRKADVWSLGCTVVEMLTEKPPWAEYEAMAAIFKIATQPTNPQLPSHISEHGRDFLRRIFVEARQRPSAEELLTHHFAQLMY

Experiment [9] concerns the target T2, MYLK3 (Homo sapiens, UniProt Q32MK0).
T2 sequence (Q32MK0 1-819): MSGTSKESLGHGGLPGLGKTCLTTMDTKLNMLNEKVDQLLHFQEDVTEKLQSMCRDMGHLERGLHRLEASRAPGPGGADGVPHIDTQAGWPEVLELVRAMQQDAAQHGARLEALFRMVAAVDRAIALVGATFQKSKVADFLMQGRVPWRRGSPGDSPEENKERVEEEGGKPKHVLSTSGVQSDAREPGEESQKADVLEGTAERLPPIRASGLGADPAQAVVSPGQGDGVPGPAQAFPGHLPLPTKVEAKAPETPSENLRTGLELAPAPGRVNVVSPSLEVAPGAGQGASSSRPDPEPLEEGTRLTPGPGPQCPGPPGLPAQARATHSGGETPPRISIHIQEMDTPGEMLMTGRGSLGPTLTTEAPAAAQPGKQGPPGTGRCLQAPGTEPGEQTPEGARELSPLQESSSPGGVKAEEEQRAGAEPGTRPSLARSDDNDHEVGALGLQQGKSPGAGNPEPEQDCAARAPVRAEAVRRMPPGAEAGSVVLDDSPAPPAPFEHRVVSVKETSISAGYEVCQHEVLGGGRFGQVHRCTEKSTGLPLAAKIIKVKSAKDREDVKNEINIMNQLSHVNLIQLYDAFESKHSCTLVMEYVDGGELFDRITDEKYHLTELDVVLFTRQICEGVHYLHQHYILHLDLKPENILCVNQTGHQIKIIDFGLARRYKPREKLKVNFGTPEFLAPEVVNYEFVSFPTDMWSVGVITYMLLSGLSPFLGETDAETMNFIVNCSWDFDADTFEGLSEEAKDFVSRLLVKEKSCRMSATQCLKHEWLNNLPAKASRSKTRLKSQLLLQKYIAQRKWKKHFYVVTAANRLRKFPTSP

Experiment [10] deals with MAP4K4 (Homo sapiens, UniProt O95819).
Sequence of MAP4K4 (O95819 whole entry): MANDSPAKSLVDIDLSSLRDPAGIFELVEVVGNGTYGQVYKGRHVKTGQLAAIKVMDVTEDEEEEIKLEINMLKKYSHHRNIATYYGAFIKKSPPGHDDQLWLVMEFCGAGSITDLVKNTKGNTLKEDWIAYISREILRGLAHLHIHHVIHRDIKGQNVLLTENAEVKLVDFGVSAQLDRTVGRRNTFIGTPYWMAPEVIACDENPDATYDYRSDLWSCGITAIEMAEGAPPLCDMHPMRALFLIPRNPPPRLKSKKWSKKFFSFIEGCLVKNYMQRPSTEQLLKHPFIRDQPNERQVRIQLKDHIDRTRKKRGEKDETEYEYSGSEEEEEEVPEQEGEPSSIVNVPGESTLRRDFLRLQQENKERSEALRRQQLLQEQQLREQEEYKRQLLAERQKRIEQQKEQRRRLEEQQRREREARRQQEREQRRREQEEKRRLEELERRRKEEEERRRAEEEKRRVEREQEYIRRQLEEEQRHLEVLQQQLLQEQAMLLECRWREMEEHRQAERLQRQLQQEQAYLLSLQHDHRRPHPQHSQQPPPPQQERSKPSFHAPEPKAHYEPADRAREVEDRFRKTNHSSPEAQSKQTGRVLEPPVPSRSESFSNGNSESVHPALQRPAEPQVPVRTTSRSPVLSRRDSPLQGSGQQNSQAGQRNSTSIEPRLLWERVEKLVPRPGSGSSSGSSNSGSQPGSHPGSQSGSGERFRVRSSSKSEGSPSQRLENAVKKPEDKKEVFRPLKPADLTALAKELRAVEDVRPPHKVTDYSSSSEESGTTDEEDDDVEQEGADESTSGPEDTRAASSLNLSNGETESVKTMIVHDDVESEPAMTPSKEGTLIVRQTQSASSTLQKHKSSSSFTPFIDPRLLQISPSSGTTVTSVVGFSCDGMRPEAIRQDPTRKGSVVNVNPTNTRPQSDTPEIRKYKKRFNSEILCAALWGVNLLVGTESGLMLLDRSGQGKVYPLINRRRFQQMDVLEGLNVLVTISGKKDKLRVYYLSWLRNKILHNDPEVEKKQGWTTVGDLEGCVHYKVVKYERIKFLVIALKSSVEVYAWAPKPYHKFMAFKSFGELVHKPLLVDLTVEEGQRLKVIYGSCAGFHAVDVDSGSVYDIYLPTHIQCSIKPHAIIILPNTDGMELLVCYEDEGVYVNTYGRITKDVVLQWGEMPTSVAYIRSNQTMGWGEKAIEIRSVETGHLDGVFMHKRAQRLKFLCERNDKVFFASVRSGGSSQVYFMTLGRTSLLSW

Values joined by “and” are separate entries in the source; they are usually repeats but may differ in a detail not shown here. Equal values may be shown once.

Sequence of LYN (P07948 whole entry): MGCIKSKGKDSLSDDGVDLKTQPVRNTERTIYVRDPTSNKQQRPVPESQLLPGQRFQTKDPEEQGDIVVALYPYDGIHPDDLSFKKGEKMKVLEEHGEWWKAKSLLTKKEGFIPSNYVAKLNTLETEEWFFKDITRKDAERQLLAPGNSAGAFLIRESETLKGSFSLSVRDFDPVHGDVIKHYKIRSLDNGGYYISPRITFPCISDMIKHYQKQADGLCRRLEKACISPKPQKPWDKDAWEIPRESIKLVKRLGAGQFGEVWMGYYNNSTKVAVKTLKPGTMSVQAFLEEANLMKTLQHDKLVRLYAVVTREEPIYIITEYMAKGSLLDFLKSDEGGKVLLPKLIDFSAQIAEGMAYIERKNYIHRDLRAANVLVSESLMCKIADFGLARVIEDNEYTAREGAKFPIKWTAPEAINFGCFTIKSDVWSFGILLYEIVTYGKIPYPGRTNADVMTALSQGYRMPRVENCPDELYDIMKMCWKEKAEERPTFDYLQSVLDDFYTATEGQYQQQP

Take `CN1CCN(c2ccc(Nc3ncc(C#N)c(Nc4ccccc4C(N)=O)n3)cc2)CC1.Cl` [TCMDC-134116]: the Kd in [1] was 46.3 nM; in [2] it was 1630 nM and 1450 nM; in experiment [3] it was 168 nM and 147 nM; in experiment [4], 727 nM and 858 nM; in experiment [5], 66.6 nM and 77.7 nM; in experiment [6] it was 5.74 µM. Moreover, the Kd in experiment [7] was 134 nM and 167 nM; in experiment [8], 176 nM; in experiment [9] it was 56 nM and 77.8 nM.

Turning to `Cl.NCC1(c2nc(-c3ccc(Cl)c(O)c3)c(-c3ccncc3)[nH]2)CCCCC1` [TCMDC-141154], the Kd is 8760 nM in experiment [2]; 7880 nM in experiment [4]; 0.811 µM in experiment [6]; 621 nM in experiment [7]; 850 nM and 539 nM in experiment [10].

For `CN(C)CC(O)COc1ccc(Nc2ncc([N+](=O)[O-])c(Nc3ccccc3O)n2)cc1.O=C(O)C(F)(F)F` (centres unmarked) [TCMDC-141399], the Kd is 728 nM and 328 nM in experiment [1]; 182 nM and 245 nM in experiment [3]; 5550 nM and 3660 nM in experiment [5]; 3400 nM in experiment [8]; 1020 nM and 680 nM in [10]; 1760 nM and 1510 nM in experiment [9].
